According to patent publication US12310973B2, “Administration and dosage of diaminophenothiazines” (WisTa Laboratories Ltd., priority 2016, dated 2025):
Where “and” joins values, the source holds several entries; their conditions need not be identical. Equal entries are not always repeated.

Tests used:
[1] = system: mild to moderate AD patients; experiment: Phase 3 trial in mild to moderate AD: ADCS-ADL change from baseline; format: in vivo, human
Text: The co-primary efficacy outcomes were change from baseline in 11-item Alzheimer's Disease Assessment Scale—cognitive subscale (ADAS-cog) and the 23-item Alzheimer's Disease Cooperative Study Activities of Daily Living (ADCS-ADL). Magnetic resonance imaging (MRI) volumetry was chosen as the principal secondary outcome to support a potential effect on the rate of brain atrophy (Fox et al., 1997; Ridha et al., 2008). Change in Lateral Ventricular Volume (LVV), as measured by the Ventricular Boundary Shift Integral (VBSI), (Salloway et al., 2014) was chosen as the principal measure as it provides high-contrast boundaries for measurement and is less affected by motion artefacts than whole brain or smaller structures. Key supportive topographical measures (temporo-parietal (TPV) and hippocampal volume (HV)) are also reported.
Patients were recruited at 115 sites across 16 countries between January 2013 and August 2014. Enrolment of approximately 833 patients was targeted, with 891 patients actually recruited, in order to obtain data on approximately 500 patients completing the study, assuming a 30-40% drop-out rate. […] Adult caregiver(s) were required to participate. Concomitant use of AChEIs and/or memantine was permitted, provided the patient had been taking the medication(s) for […], with no changes to the dosage for 26 weeks prior to screening. Concomitant use of serotonergic antidepressant medication was permitted, but patients were monitored closely using a targeted rating scale derived from 4 published diagnostic criteria (Alusik et al., 2014) due to a theoretical potential for serotonin syndrome (Ramsay et al., 2007). […] Because MT^+ in high doses can induce methaemoglobinaemia, subjects with glucose-6-phosphate dehydrogenase deficiency or who were otherwise at haematological risk were excluded. Other inclusion/exclusion criteria are provided in the Supplementary Materials.
Patients were randomised at baseline to LMTM 75 mg b.i.d. or 125 mg b.i.d. (expressed as MT base equivalent) or control in a 3:3:4 ratio. The randomisation was stratified according to geographical region (3 levels: North America, Europe, rest of world), use of AD-labelled co-medications (2 levels, using or not using) and severity (2 levels, moderate MMSE 14-19 inclusive, mild MMSE 20-26 inclusive). Patients in the control arm received a dose of 4 mg b.i.d. to maintain blinding.
ADAS-cog and ADCS-ADL assessments were performed at baseline and every 13 weeks thereafter, with change at 65 weeks (the final on-treatment visit) the primary efficacy measures. These were repeated at the final off-treatment follow-up visit at Week 69. Secondary efficacy measures included Clinical Global Impression of Change (ADCS-CGIC, administered by an independent rater); MMSE, administered on screening and at Weeks 26, 52, 65 and 69. Brain MRI scans were performed at baseline/screening and every 13 weeks using a standardized protocol including volumetric 3D T1-weighted data consistent with ADNI recommendations, FLAIR, T2* Gradient Echo and T2-weighted sequences. Diffusion-Weighted Imaging was also available at screening in order to exclude patients with co-existing pathology that would lead to a diagnosis other than probable AD. Each site was first qualified ensuring standardised acquisition protocol, patient handling and data management. MRI data were centrally collected by Imaging Corelab (Bioclinica). Data were centrally reviewed by RadMD for eligibility and safety (Amyloid Related Imaging Abnormalities, or ARIA monitoring) on an on-going basis. Volumetric 3DT1 data were also reviewed centrally in order to measure (using a boundary shift integral (BSI) technique; Salloway et al., 2014) change in LVV as principal secondary outcome measure, and as exploratory endpoints temporo-parietal volume (TPV), whole brain volume (WBV) and hippocampal volume (HV, estimated as the mean of left and right) (Wischik et al., 2016). […]

[2] = system: Mild AD patients; experiment: Further 18-month Phase 3 trial in mild AD; format: in vivo, human
Method: To examine the potential efficacy of LMTM as monotherapy in non-randomised observational cohort analyses as modified primary outcomes in an 18-months Phase 3 trial in mild AD.
Mild AD patients (n=800) were randomly assigned to 100 mg twice a day or 4 mg twice a day.
The Statistical Analysis Plan was revised in light of Example 3 (which completed earlier) prior to database lock and unblinding, to compare the 100 mg twice a day as monotherapy subgroup (n=79) versus 4 mg twice a day as randomised (n=396), and 4 mg twice a day as monotherapy (n=76) versus 4 mg twice a day as add-on therapy (n=297), with strong control of family-wise type I error.
We therefore modified the primary analyses and treatment comparisons in the study described in this Example (prior to database lock and unblinding) to investigate whether the monotherapy differences could be confirmed as observational cohort comparisons defined as primary outcomes with strong control of family-wise type I error in the second independent study. The monotherapy cohort comparisons which were of particular interest in light of the earlier study were: (A) 100 mg twice a day a monotherapy compared with the controls as originally randomised, and (B) 4 mg twice a day as monotherapy compared with the same dose as add-on to standard AD treatments.

CN(C)c1ccc2c(c1)Sc1cc(N(C)C)ccc1N2 [LMTM, leuco-methythioninium bis(hydromethanesulfonate)]
ADCS-ADL effect size as % of the decline over 65 weeks seen in the control arm ([1]; 75 mg b.i.d. monotherapy, 65 weeks): 82%±23%
ADCS-ADL effect size as % of the decline over 65 weeks seen in the control arm ([1]; 125 mg b.i.d. monotherapy, 65 weeks): 88%±23%
ADCS-ADL, Estimate (change from baseline) ([1]; Table 2 primary analysis, 65 weeks, covariates additive, control arm (LMTM 4 mg b.i.d.)): −8.22 ADCS-ADL units
ADCS-ADL, Estimate (difference with respect to control) ([1]; Table 2 primary analysis, 65 weeks, 75 mg b.i.d.): −0.93 ADCS-ADL units
ADCS-ADL, Estimate (difference with respect to control) ([1]; Table 2 primary analysis, 65 weeks, 125 mg b.i.d.): −0.34 ADCS-ADL units
ADCS-ADL, Estimate (mean additive treatment benefit) ([1]; Table 2 primary analysis, 65 weeks, patients not using AChEI/Mem (additive covariate)): 2.00 ADCS-ADL units
ADCS-ADL, Estimate (difference vs control) ([1]; Table 3, AChEI/Mem as interaction term, 65 weeks, 75 mg b.i.d. + AChEI/Mem): −2.16 ADCS-ADL units
ADCS-ADL, Estimate (difference vs control) ([1]; Table 3, AChEI/Mem as interaction term, 65 weeks, 75 mg b.i.d. monotherapy): 6.48 ADCS-ADL units
ADCS-ADL, Estimate (difference vs control) ([1]; Table 3, AChEI/Mem as interaction term, 65 weeks, 125 mg b.i.d. + AChEI/Mem): −1.62 ADCS-ADL units
ADCS-ADL, Estimate (difference vs control) ([1]; Table 3, AChEI/Mem as interaction term, 65 weeks, 125 mg b.i.d. monotherapy): 6.92 ADCS-ADL units and 6.93 ADCS-ADL units
ADCS-ADL, Estimate (change from baseline) ([1]; Table 3, AChEI/Mem as interaction term, 65 weeks, control arm (4 mg b.i.d.)): −7.92 ADCS-ADL units
ADCS-ADL, Estimate (change from baseline) ([1]; Table 4 post-hoc, control-arm subjects, 4 mg b.i.d. + AChEI/Mem): −8.90 ADCS-ADL units
ADCS-ADL, Estimate (difference) ([1]; Table 4 post-hoc, control-arm subjects, 4 mg b.i.d. monotherapy vs 4 mg b.i.d. + AChEI/Mem): 7.19 ADCS-ADL units
ADCS-ADL, Estimate (change from baseline) ([1]; Table 7, mild AD, 4 mg b.i.d. + AChEI/Mem (control-arm subjects)): −3.86 ADCS-ADL units
ADCS-ADL, Estimate (difference) ([1]; Table 7, mild AD, 4 mg b.i.d. alone vs 4 mg b.i.d. + AChEI/Mem): 5.20 ADCS-ADL units
ADCS-ADL, Estimate (difference) ([1]; Table 7, mild AD, 75 mg b.i.d. alone vs control arm as randomised): 4.65 ADCS-ADL units
ADCS-ADL, Estimate (difference) ([1]; Table 7, mild AD, 125 mg b.i.d. alone vs control arm as randomised): 7.77 ADCS-ADL units
ADCS-ADL, Estimate (change from baseline) ([1]; Table 7, mild AD, control arm as randomised (4 mg b.i.d.)): −3.20 ADCS-ADL units
ADCS-ADL, Estimate (change from baseline) ([1]; Table 7, moderate AD, 4 mg b.i.d. + AChEI/Mem (control-arm subjects)): −11.91 ADCS-ADL units
ADCS-ADL, Estimate (difference) ([1]; Table 7, moderate AD, 4 mg b.i.d. alone vs 4 mg b.i.d. + AChEI/Mem): 7.70 ADCS-ADL units
ADCS-ADL, Estimate (difference) ([1]; Table 7, moderate AD, 75 mg b.i.d. alone vs control arm as randomised): 6.89 ADCS-ADL units
ADCS-ADL, Estimate (difference) ([1]; Table 7, moderate AD, 125 mg b.i.d. alone vs control arm as randomised): 5.53 ADCS-ADL units
ADCS-ADL, Estimate (change from baseline) ([1]; Table 7, moderate AD, control arm as randomised (4 mg b.i.d.)): −10.93 ADCS-ADL units
ADCS-ADL decline at 12 months (mean±se) ([1]; control arm (LMTM 4 mg b.i.d.), 12 months): −6.51±0.63
Mean treatment benefit relative to control on ADCS-ADL ([1]; mild patients, LMTM monotherapy): 156%±39%
Withdrawal rate over 18 months ([2]; 4 mg twice a day): 25%
Withdrawal rate over 18 months ([2]; 100 mg twice a day): 46%
Revised analyses on ADAS-cog, ADCS-ADL, MRI atrophy and glucose uptake ([2]; 100 mg twice a day monotherapy vs 4 mg twice a day as randomised, 4 mg twice a day monotherapy vs add-on, 18 months): statistically significant at the required threshold of p<0.025
Annualised rate of whole brain atrophy ([2]; after LMTM as monotherapy for 9 months, within-cohort comparison): the rate was reduced to that reported for normal elderly controls
